Key:
A375 cells = assay: Assay 1: A375 cells treated with S1152, S1008 and compound, immunofluorescence (sc-365823) signal; type: cell-based; conditions: 1 μM S1152 + 0.5 μM S1008, one day
Description: One thousand four hundred A375 cells were seeded in each well of a 384 well microplate. One day later they were treated with 1 μM S1152 (Selleckchem) in dimethyl sulfoxide, 0.5 μM S1008 (Selleckchem) and dose ranges of invention compounds for one day in Dulbecco's Modified Eagle's Medium supplemented with 10% fetal calf serum and 2 mM (2S)-2-amino-4-carbamoylbutanoic acid. Wells were incubated with 4% polyoxymethylene (Sigma Aldrich 158127) at ambient temperature. […] After one minute phosphate-buffered saline was replaced with 0.2% polyethylene glycol octylphenyl ether in phosphate-buffered saline. […] 1% aminoethanoic acid in phosphate-buffered saline was added for ten minutes at ambient temperature. […] After one hour at ambient temperature in the dark, signal in wells was measured with a Acumen Cellista. 3,8-Diamino-5-[3-(diethylmethylammonio)propyl]-6-phenylphenanthridinium diiodide-positive objects were defined in FL3 (565-600 nm) with a perimeter between 50-800 μm and a total intensity of 10000-1000000 FLU. Signal in FL2 (500-530 nm) was measured in defined objects. A normalized ratio of total In FL2 over total In FL3 staining was log transformed. A non-linear regression (variable slope, 4 parameters) was used to calculate EC50 values using GraphPad Prism (Version 7.0d).
In an alternative procedure, assay 1 has been affected by changing the counteratain. […] Cells were incubated with 0.5 μg/ml 2-(4-Amidinophenyl)-6-indolecarbamidine dihydrochloride, 4′,6-Diamidino-2-phenylindole dihydrochloride (Sigma D9542) in phosphate-buffered saline for at least 30 minutes at ambient temperature in the dark. A Celigo Imager (Nexcelom) was used to acquire images in the blue and green channel. The blue channel was used as a mask to define the area for the green signal. The average integrated intensity of the green signal was normalized and a non-linear regression (variable slope, 4 parameter) was used to calculate the EC50 values using GraphPad Prism (Version 8.4)

OPM-2 = assay: Assay 2: multiple myeloma cellular efficacy, PrestoBlue cell proliferation/survival; type: cell-based; conditions: Homo sapiens, 96 h, OPM-2 cells, 4 days
Description: Multiple Myeloma Cellular Efficacy:
10000 OPM-2 (ACC50; DSMZ) were plated into wells of a 384 well plate (Greiner 781090). Cells were treated for 4 days with a dose range of compound or vehicle. At the end of the experiment cells were stained directly with PrestoBlue (ThermoFisher Scietific; A13262) for 2 hours at 37° C. in a humidified incubator according to manufactor's instruction. To assess the relative cell number the PrestoBlue signal was measured using either a TecanM1000Pro reader or a Tecan Sparks reader following the manufactor's instructions. Background (no cells) values were subtracted and set in relation to the vehicle control. To assess the EC50 of each compound the relative fluorescence value was plotted against the compound concentration after log transformation. Data were fitted in a nonlinear manner with a variable slope (four parameters) using graphpad prism software. Cellular efficacy of compounds was evaluated in the multiple myeloma cell line OPM-2 using the cell proliferation/survival assay PrestoBlue. EC50 values are classified as indicated below.

Row | Compound | EC50 (A375 cells) [nM] | EC50 (OPM-2) [nM]
1 | COCC(=O)Nc1cccc(Nc2cc(-c3cccnc3)nc([C@@H]3CC[C@H](C)N(C(C)=O)C3)n2)c1 [Compound 00084, N-(3-((2-((3R,6S)-1-acetyl-6-methylpiperidin-3-yl)-6-(pyridin-3-yl)pyrimidin-4-yl)amino)phenyl)-2-methoxyacetamide] | < 200 | 200 to 1000
2 | CC(=O)N1C[C@H](c2nc(Nc3ccc4oc(C)nc4c3)cc(-c3cccnc3)n2)CC[C@@H]1C [Compound 00147, 1-((2S,5R)-2-methyl-5-(4-((2-methylbenzo[d]oxazol-5-yl)amino)-6-(pyridin-3-yl)pyrimidin-2-yl)piperidin-1-yl)ethan-1-one] | < 200 | < 200
3 | CC(=O)Nc1cc(Nc2cc(-c3cccnc3)nc([C@@H]3CC[C@H](C)N(C(C)=O)C3)n2)cc(C(F)F)c1 [Compound 00060, N-(3-((2-((3R,6S)-1-acetyl-6-methylpiperidin-3-yl)-6-(pyridin-3-yl)pyrimidin-4-yl)amino)-5-(difluoromethyl)phenyl)acetamide] | 200 to 1000 | < 200
4 | COc1cncc(-c2cc(Nc3cccc(F)c3)nc([C@H]3CC[C@@H](C)N(C(C)=O)C3)n2)c1 [Compound 00003] | – | > 10000
5 | CC(=O)N1C[C@H](c2nc(Nc3cccc(N4CCOC4=O)c3)cc(-c3cccnc3)n2)CC[C@@H]1C [Compound 00088, 3-(3-((2-((3R,6S)-1-acetyl-6-methylpiperidin-3-yl)-6-(pyridin-3-yl)pyrimidin-4-yl)amino)phenyl)oxazolidin-2-one] | < 200 | 200 to 1000
6 | CC(=O)N1C[C@H](c2nc(Nc3cccc(-c4nnn(C)n4)c3)cc(-c3cccnc3)n2)CC[C@@H]1C [Compound 00062, 1-((2S,5R)-2-methyl-5-(4-((3-(2-methyl-2H-tetrazol-5-yl)phenyl)amino)-6-(pyridin-3-yl)pyrimidin-2-yl)piperidin-1-yl)ethan-1-one] | < 200 | < 200
7 | CC(=O)N1C[C@H](c2nc(Nc3cccc(-c4nnc(C)o4)c3)cc(-c3cccnc3)n2)CC[C@@H]1C [Compound 00142, 1-((2S,5R)-2-methyl-5-(4-((3-(5-methyl-1,3,4-oxadiazol-2-yl)phenyl)amino)-6-(pyridin-3-yl)pyrimidin-2-yl)piperidin-1-yl)ethan-1-one] | < 200 | < 200
8 | CC(=O)N1C[C@H](c2nc(Nc3ccnc(C)c3)cc(-c3cncc4c3ccn4C)n2)CC[C@@H]1C [Compound 00116, 1-((2S,5R)-2-methyl-5-(4-(1-methyl-1/7-pyrrolo[2,3-c]pyridin4-yl)-6-((2-methylpyridin-4-yl)amino)pyrimidin-2-yl)piperidin1-yl)ethan-1-one] | < 200 | < 200
9 | CC(=O)N1C[C@H](c2nc(Nc3cc(F)cc(-c4cnn(C)c4)c3)cc(-c3cncc(N4C[C@@H]5C[C@H]4CO5)c3)n2)CC[C@@H]1C [Compound 00090, 1-((2S,5R)-5-(4-(5-((1S,4S)-2-oxa-5-azabicyclo-[2.2.1]heptan-5-yl)pyridin-3-yl)-6-((3-fluoro-5-(1-methyl-1H-pyrazol-4-yl)phenyl)amino)pyrimidin-2-yl)-2-methylpiperidin-1-yl)ethan-1-one] | – | < 200

Second part, led by results:

Row | EC50 (A375 cells) [nM] | Compound | EC50 (OPM-2) [nM]
10 | < 200 | COCCOc1cncc(-c2cc(Nc3cc(F)cc(-c4cnn(C)c4)c3)nc([C@@H]3CC[C@H](C)N(C(C)=O)C3)n2)c1 [Compound 00091, 1-((2S,5R)-5-(4-((3-fluoro-5-(1-methyl-1H-pyrazol-4-yl)phenyl)amino)-6-(5-(2-methoxyethoxy)pyridin-3-yl)pyrimidin-2-yl)-2-methylpiperidin-1-yl)ethan-1-one] | < 200
11 | < 200 | CC(=O)Nc1cccc(Nc2cc(-c3cccnc3)nc([C@@H]3CC[C@H](C)N(C(C)=O)C3)n2)n1 [Compound 00148, N-(6-((2-((3R,6S)-1-acetyl-6-methylpiperidin-3-yl)-6-(pyridin-3-yl)pyrimidin-4-yl)amino)pyridin-2-yl)acetamide] | < 200
12 | < 200 | CC(=O)N1C[C@H](c2nc(Nc3cccc(-c4ncn(C)n4)c3)cc(-c3cccnc3)n2)CC[C@@H]1C [Compound 00052, 1-((2S,5R)-2-methyl-5-(4-((3-(1-methyl-1H-1,2,4-triazol-3-yl)phenyl)amino)-6-(pyridin-3-yl)pyrimidin-2-yl)piperidin-1-yl)ethan-1-one] | < 200
13 | 200 to 1000 | CC(=O)N1C[C@H](c2nc(Nc3cccc4c3CC(=O)N4)cc(-c3cccnc3)n2)CC[C@@H]1C [Compound 00051, 4-((2-((3R,6S)-1-acetyl-6-methylpiperidin-3-yl)-6-(pyridin-3-yl)pyrimidin-4-yl)amino)indolin-2-] | 1000 to 10000
14 | < 200 | CC(=O)N1C[C@H](c2nc(Nc3cccc(-n4cncn4)c3)cc(-c3cccnc3)n2)CC[C@@H]1C [Compound 00078, 1-((2S,5R)-5-(4-((3-(1H-1,2,4-triazol-1-yl)phenyl)amino)-6-(pyridin-3-yl)pyrimidin-2-yl)-2-methylpiperidin-1-yl)ethan-1-one] | < 200
15 | 1000 to 10000 | CC(=O)Nc1cc(Nc2cc(-c3cccnc3)nc([C@@H]3CC[C@H](C)N(C(C)=O)C3)n2)ccn1 [Compound 00136, N-(4-((2-((3R,6S)-1-acetyl-6-methylpiperidin-3-yl)-6-(pyridin-3-yl)pyrimidin-4-yl)amino)pyridin-2-yl)acetamide] | 1000 to 10000
16 | < 200 | CC(=O)N1C[C@H](c2nc(Nc3cc(C)nc(-c4cnn(C)c4)c3)cc(-c3cnccn3)n2)CC[C@@H]1C [Compound 00154, 1-((2S,5R)-2-methyl-5-(4-((2-methyl-6-(1-methyl-1H-pyrazol-4-yl)pyridin-4-yl)amino)-6-(pyrazin2-yl)pyrimidin-2-yl)piperidin-1-yl)ethan-1-one] | 200 to 1000
17 | 200 to 1000 | CC(=O)N1C[C@H](c2nc(Nc3cncc(C(F)F)c3)cc(-c3cccnc3)n2)CC[C@@H]1C [Compound 00107, 1-((2S,5R)-5-(4-((5-(difluoromethyl)pyridin-3-yl)amino)-6-(pyridin-3-yl)pyrimidin-2-yl)-2-methylpiperidin-1-yl)ethan-1-one] | 200 to 1000
18 | < 200 | CC(=O)N1C[C@H](c2nc(Nc3ccnc(C(F)(F)F)c3)cc(-c3cccnc3)n2)CC[C@@H]1C [Compound 00123, 1-((2S,5R)-2-methyl-5-(4-(pyridin-3-yl)-6-((2-(trifluoromethyl)pyridin-4-yl)amino)pyrimidin-2-yl)piperidin 1-yl)ethan-1-one] | < 200
19 | < 200 | COCCn1ccc2c(-c3cc(Nc4cccc(-c5cn(C)nn5)c4)nc([C@@H]4CC[C@H](C)N(C(C)=O)C4)n3)cncc21 [Compound 00094, 1-((2S,5R)-5-(4-(1-(2-methoxyethyl)-1H-pyrrolo[2,3-c]pyridin4-yl)-6-((3-(1-methyl-1H-1,2,3-triazol-4-yl)phenyl)amino)pyrimidin-2-yl)-2-methylpiperidin-1-yl)ethan1-one] | < 200
20 | 200 to 1000 | CC(=O)N1C[C@H](c2nc(Nc3ccnc(OC(C)C)c3)cc(-c3cnccn3)n2)CC[C@@H]1C [Compound 00155, 1-((2S,5R)-5-(4-((2-isopropoxypyridin-4-yl)amino)-6-(pyrazin-2-yl)pyrimidin-2-yl)-2-methylpiperidin-1-yl)ethan-1-one] | 200 to 1000
21 | < 200 | CC(=O)N1C[C@H](c2nc(Nc3cc(-c4cnn(C)c4)cc(C(F)F)c3)cc(-c3cnccn3)n2)CC[C@@H]1C [Compound 00055, 1-((2S,5R)-5-(4-((3-(difluoromethyl)-5-(1-methyl-1Hpyrazol-4-yl)phenyl)amino)-6-(pyrazin-2-yl)pyrimidin-2-yl)-2-methylpiperidin-1-yl)ethan-1-one] | < 200
22 | < 200 | CC(=O)Nc1cc(F)cc(Nc2cc(-c3cccnc3)nc([C@@H]3CC[C@H](C)N(C(C)=O)C3)n2)c1 [Compound 00047, N-(3-((2-((3R,6S)-1-acetyl-6-methylpiperidin-3-yl)-6-(pyridin-3-yl)pyrimidin-4-yl)amino)-5-fluorophenyl)acetamide] | < 200

Reference: patent publication US12478624B2, “Heterocyclic derivatives, pharmaceutical compositions and their use in the treatment or amelioration of cancer” (Tolremo Therapeutics AG, priority 2019, dated 2025)
